In US20230391817A1, “5ALPHA-HYDROXY-6BETA-[2-(1-H-IMIDAZOL-4-YL)-ETHYLAMINO]-CHOLESTAN-3BETA-OL ANALOGUES AND PHARMACEUTICAL COMPOSITIONS COMPRISING SAME FOR USE IN THE TREATMENT OF CANCER” (priority 2020, published 2023):
Like-named read-outs stand apart in the source and are kept apart here.

Tests used:
[1] = Pharmacokinetics and bioavailability, oral and I.V., in rats (Example 28); assay type: in vivo; conditions: rat
Protocol: Plasma sampling at 0 (without injection), 15, 30 min, 1 h, 4 h, 8 h, 24 h, 48 h, 72 h

[2] = system: 4T1 tumors; experiment: Tumor growth and survival in vivo, subcutaneous 4T1 tumors in Balb/c mice; conditions: 40 mg/kg, gavage, daily; for Inhibition of tumor growth at 7 days: Balb/c mice with 4T1 tumors
Protocol: All the animal procedures were conducted according to our institutional guidelines after approval by the ethics committee. The 4T1 cells were cultured as previously, dissociated in trypsin, washed twice with cold PBS and resuspended in 1.5 million/ml PBS. 4T1 tumors were obtained by subcutaneous transplantation of 0.150 million cells in 100 μL into the flank of female Balb/c mice (9 weeks old, […]). When the tumors reached a volume of 50-100 mm^3, the mice were gavaged with 40 mg/kg of DX101 or 40 mg/kg of DX111 or the control vehicle (water). Treatment was performed daily until the end of the experiment (tumor volume >1000 mm^3). Tumor volume was determined daily using a caliper and calculated using the formula: ½×(Length*Width^2). The percentage of tumor growth inhibition was determined using the following formula: 100×(1-(Tumor volume, day 7/tumor volume day 0)DX111)/(1-(Tumor volume, day 7/tumor volume day 0)vehicle).
The Kaplan-Meier method was used to compare animal survival.

[3] = Oral pharmacokinetic study in rat, LC/MS assay in plasma (Examples 21-24); assay type: in vivo; conditions: 50 mg/kg
Protocol: The following study is an LC/MS assay in plasma of the various molecules over 3 days (11 measurement points in the end). The graphs are always presented in comparison with DX101 which is the reference.
Plasma sampling at 0 (without injection), 5, 10, 15, 30 min, 1 h, 4 h, 8 h, 24 h, 48 h, 72 h (11 points)

[4] = system: BT-474 human mammary tumor cells; experiment: Cell viability of BT-474 cells, trypan blue; assay type: cell-based; conditions: BT-474, Trypan Blue, 48 h; for Mean LogIC50 (±SEM): log of IC50 in μM; for IC50: Homo sapiens
Protocol: Cell viability tests were also performed on BT-474 human mammary tumor cells (characterized as triple positive HER2+, ER+, PR+). The BT-474 cells were in a cell culture medium identical to the previous example and seeded in 24-well plates at 70 000 cells per well for cell viability determination using trypan blue, or in 96-well plates at 13 000 cells per well for cell viability determination using the MTT or LDH assay. After 96 hours (h) of culture under normal conditions, i.e. in an incubator at 37° C. with […], BT-474 cells were treated for 48 h with DX101, DX103, DX105, DX111, DX123 and DX127 at 100 nM, 1 μM, 2.5 μM and 10 μM. A control is also performed using the protocol described previously without treatment with DX101, DX103, DX105, DX111, DX123 and DX127.
After a 10-minute trypsin digestion at 37° C., the cell survival was also quantified by means of a trypan blue test with automatic counting using the Biorad TC20 machine (TC20™ Automated Cell Counter). The trypan blue test is based on the integrity of cell membranes, which is disrupted in the dead cells. Trypan blue stains dead cells blue. The Biorad TC20 cell counter counts the proportion of blue and non-blue cells, and reports the percentage of cells. The percentage of viability is then determined in each well relative to the untreated cells and the IC50 is determined as explained in the preceding example. Also, the percentage viability of the BT-474 cells was determined using the MTT and LDH assay, performed as described in the preceding example.

[5] = system: murine 4T1 mammary tumor cells; experiment: Cell viability of 4T1 cells, MTT; assay type: cell-based; conditions: for IC50: Mus musculus, 4T1, MTT, 48 h
Protocol: Cell viability tests were performed on murine 4T1 mammary tumor cells characterized as triple negative (HER2-, ER-, PR-).
For this experiment, a cell culture medium was prepared. The culture medium consisted of Dulbecco's Modified Eagle Medium (DMEM, sold by Westburg as LO BE12-604F), comprising 4.5 g/L glucose with L-glutamine, to which 10% fetal calf serum (FCS) and 50 U/ml penicillin/streptomycin are added. The 4T1 cells were introduced into this culture medium.
96-well plates were seeded with 2000 4T1 cells per well. After 72 hours (h) of culture under normal condition, i.e. in an incubator at 37° C. at […], the 4T1 cells were treated for 48 h with DX101, DX103, DX111, DX123, DX125, DX127 and DX129 at 100 nM, 1 μM, 2.5 μM and 10 μM. A control condition (CTL) is also performed in parallel using the previously described protocol without treatment with the molecules DX101, DX103, DX111, DX123, DX125, DX127 or DX129.
The cell viability is measured by three different methods. For the first method, MTT labeling is performed at 48 hours. This test is based on the use of the tetrazolium salt MTT (3-(4,5-dimethylthiazol-2-yl)-2,5-diphenyltetrazolium bromide). Tetrazolium is reduced by mitochondrial succinate dehydrogenase in active live cells to formazan, a purple colored precipitate. The amount of precipitate formed is proportional to the amount of live cells but also to the metabolic activity of each cell. Thus, a simple determination of the optical density at 550 nm by spectroscopy makes it possible to determine the relative amount of live and metabolically active cells. After 48 hours, the medium is aspirated, and the cells are incubated with MTT (0.5 mg/ml in culture medium) for about 3 hours. The MTT solution is aspirated and the purple crystals are dissolved in dimethyl sulfoxide (DMSO). The OD (optical density) is measured at 550 nm. The percentage of viability is then determined in each well against the CTL and the IC50 (concentration at which 50% of cells remain alive) is determined for each molecule with the Prism software using a nonlinear regression curve (log(inhibitor) vs. Response).

[6] = log of IC50 in μM, read-out: Mean LogIC50 (±SEM) (converted)

`CC(C)CCC[C@@H](C)[C@H]1CC[C@H]2[C@@H]3C[C@@H](NCCc4c[nH]cn4)[C@@]4(O)C[C@@H](O)CC[C@]4(C)[C@H]3CC[C@]12C` [DX101, 5α-hydroxy-6β-[2-(1H-imidazol-4-yl)ethylamino]cholestan-3β-ol, reference compound] gave a clearance ([1]; plasma, iv, 5 mg/kg, read-out: Clearance) of 11 mL/min/kg, a half-life ([1]; plasma, iv, 5 mg/kg, read-out: T½ 2nd phase (converted)) of 28 h and a bioavailability ([1]; plasma, po 50 mg/kg versus iv 5 mg/kg, read-out: F %) of 3%. The half-life ([1]; plasma, po, 50 mg/kg, read-out: T½ 2nd phase (converted)) was 39 h, the “ASC(t0-tlast)” value ([1]; iv, 5 mg/kg, plasma) was 6205 and the Cmax ([1]; iv, 5 mg/kg, plasma, read-out: Cmax) was 3310 ng/mL. It also gave a Vd ([1]; plasma, iv, 5 mg/kg, iv, 5 mg/kg, read-out: Vd) of 29 L/kg, a Vd ([1]; plasma, iv, 5 mg/kg, iv, 5 mg/kg, read-out: Vss) of 19 L/kg and a clearance ([1]; po, 50 mg/kg) of 412 mL/min/kg. The “ASC(t0-tlast)” value ([1]; po, 50 mg/kg, plasma) was 1546, the Cmax ([1]; po, 50 mg/kg, plasma, read-out: Cmax) was 77 ng/mL and the Tmax ([1]; po, 50 mg/kg, plasma, read-out: Tmax) was 4 h. The median survival [2] was 9 days, the “survival after 15 days of treatment” value [2] was 0% and the “Inhibition of tumor growth at 7 days” value [2] was 48%. The “Area under the curve” value ([3]; oral, plasma, Example 24) was 3019, the Max concentration ([3]; oral, plasma, Example 24) was 150 nM and the “Area under the curve” value ([3]; oral, plasma, Examples 21-23) was 143297. For the same compound, the Max concentration ([3]; oral, plasma, Examples 21-23) was 140 nM, the “Mean LogIC50 (±SEM)” value [4] was 0.61 ± 0.20 and the IC50 [4] was 4.03 µM. For the same compound, the IC50 [5, 6] was 4.37 µM and the IC50 ([5]; read-out: IC50) was 4.4 µM.

For `CC(C)CCC[C@@H](C)[C@H]1CC[C@H]2[C@@H]3C[C@@H](NCCc4c[nH]cn4)[C@@]4(O)C[C@@H](F)CC[C@]4(C)[C@H]3CC[C@]12C` [DX111, 3β-fluoro-5α-hydroxy-6β-[2-(1H-imidazol-4-yl)ethylamino]cholestane], the bioavailability ([1]; in vivo) was 10%, the “ASC(t0-tlast)” value ([1]; in vivo, iv, 5 mg/kg) was 3516 and the Cmax ([1]; in vivo, iv, 5 mg/kg) was 2970 ng/mL. It also gave a clearance ([1]; in vivo, iv, 5 mg/kg) of 25 mL/min/kg, a half-life ([1]; in vivo, iv, 5 mg/kg) of 21 h and a Vd ([1]; in vivo, iv, 5 mg/kg, Vd) of 43 L/kg. For the same compound, the Vd ([1]; in vivo, iv, 5 mg/kg, Vss) was 12 L/kg, the “bioavailability compared with DX101” value ([1]; in vivo, po) was “three-fold higher bioavailability” and the “clearance compared with DX101” value ([1]; in vivo, po) was “halved”. The “maximum plasma concentration compared with DX101” value ([1]; in vivo, po) was “four times higher”, the “ASC(t0-tlast)” value ([1]; in vivo, po, 50 mg/kg) was 3228 and the Cmax ([1]; in vivo, po, 50 mg/kg) was 309 ng/mL. It also gave a Tmax ([1]; in vivo, po, 50 mg/kg) of 4 h, a clearance ([1]; in vivo, po, 50 mg/kg) of 240 mL/min/kg and a half-life ([1]; in vivo, po, 50 mg/kg) of 24 h. The median survival [2] was 10 days, the “survival after 15 days of treatment” value [2] was 25% and the “Inhibition of tumor growth at 7 days” value [2] was 67%. For the same compound, the “effect on tumor growth reduction compared with DX101” value ([2]; p<0.01) was “superior effect”, the “Area under the curve” value ([3]; in vivo, po) was 368921 and the Max concentration ([3]; in vivo, po) was 515 nM. The “Time for Cmax” value ([3]; in vivo, po) was 240 min, the “bioavailability / extent of absorption compared with DX101” value ([3]; in vivo, po) was “three-fold higher absorption” and the “maximum concentration compared with DX101” value ([3]; in vivo, po) was “higher maximum concentration”. The “speed of absorption compared with DX101” value ([3]; in vivo, po) was “faster absorption”, the “Mean LogIC50 (±SEM)” value [4] was 0.78 ± 0.15 and the IC50 [4] was 5.96 µM. For the same compound, the “cytotoxic activity compared with DX101” value ([5]; 4T1, Tables 1a, 1b and 1c (MTT, LDH, Green Cytotoxicity Assay)) was “higher”, the IC50 [5, 6] was 1.7 µM and the IC50 ([5]; read-out: IC50) was 1.69 µM.
